Experimental data taken from ChEMBL document CHEMBL6177965, “Sealgamide: An Antitrypanosomal Lipopeptide Isolated from a Marine Okeania sp. Cyanobacterium” (J Nat Prod, 2025).
pIC50: −log10 of the molar value.

Tests used:
[1] = system: HeLa; assay: Cytotoxicity against human HeLa cells assessed as inhibition of cell growth incubated for 72 hrs by MTT assay; type: functional, cell-based
[2] = system: Plasmodium falciparum; assay: Antimalarial activity against Plasmodium falciparum 3D7 infected in RBC incubated for 72 hrs by LDH assay; type: functional, organism-based; conditions: 3D7, Erythrocyte
[3] = system: Trypanosoma brucei rhodesiense; assay: Antitrypanosomal activity against Trypanosoma brucei rhodesiense IL-1501 incubated for 69 hrs by Alamar blue staining based analysis; type: functional, organism-based; conditions: IL-1501, 69 h

pIC50 [2] | pIC50 [3] | Compound | pIC50 [1]
< 4.60 | 5.54 | CCC[C@@H](C[C@@H](CC(=O)N(C)[C@@H](C(=O)N[C@H](C)C(=O)N[C@H](CC(C)C)C(=O)N(C)[C@@H](CC(C)C)C(=O)N[C@H](C(=O)N(C)[C@H](C(=O)N(C)[C@@H](CCC(N)=O)C(=O)N[C@@H](Cc1ccccc1)C(=O)N(C)[C@@H](CCC(N)=O)C(=O)N(C)[C@@H](Cc1ccc(OC)cc1)C(=O)O)C(C)C)[C@@H](C)O)[C@@H](C)CC)OC)OC | < 4.52
5.68 | 6.19 | CCC[C@@H](C[C@@H](CC(=O)N(C)[C@@H](C(=O)N(C)[C@H](C)C(=O)N[C@H](CC(C)C)C(=O)N(C)[C@@H](CC(C)C)C(=O)N[C@H](C(=O)N(C)[C@H](C(=O)N(C)[C@@H](CCC(N)=O)C(=O)N[C@@H](Cc1ccccc1)C(=O)N(C)[C@@H](CCC(N)=O)C(=O)N(C)[C@@H](Cc1ccc(OC)cc1)C(=O)OC)C(C)C)[C@@H](C)O)[C@@H](C)CC)OC)OC | < 4.52
 | 8.05 | N=C(N)c1ccc(OCCCCCOc2ccc(C(=N)N)cc2)cc1 [PENTAMIDINE] | 
